Assay [1] concerns the target T1, β1-AR (Homo sapiens, UniProt P08588). Nature of the assay: CRE-luciferase production in CHO-β1-CRE-luciferase cells. Particulars: for % isop: response compared to 10 μM isoprenaline; for Log EC50: agonist action; for Log KD Secondary Conformation, CGP12177 as agonist: rightward shift of CGP12177 response.
The target of assay [2] is T1, β1-AR. As to the kind of experiment: Summary of pharmacological outcome at the β1-AR (CHO-β1-luciferase or CHO-β1-SPAP cells). Conditions: for Pharmacological Outcome: CCE/IBS conformation / Pharmacological Outcome: SCE conformation: β1-AR, summary; for Evidence of SCE activation: evidence A–D as outlined in the Introduction, CHO-β1-luciferase or CHO-β1-SPAP cells.
Assay [3] addresses T1, β1-AR. Nature of the assay: CRE-SPAP production in CHO-β1-CRE-SPAP cells. Conditions: CHO-β1-CRE-SPAP cells; for % Isoprenaline: response compared with 10 μM isoprenaline; for EC50 / Log EC50: agonist action; for EC50: read-out: Log EC50 (converted). The format is cell-based. Set-up: expressed in transfected cells; host or cells: CHO-K1 clonal lines (CHO-β1-CRE-luc, CHO-β1-CRE-SPAP). The protocol: (§1) Many agonist responses were best described by a one-site sigmoidal agonist concentration-response curve.
(§2) In experiments where 3 different fixed concentrations of the same antagonist were used, Schild plots were constructed using equation (6):(6) logDR-1=logB-logKD
(§3) These points were then fitted to a straight line. A slope of 1 then indicates competitive antagonism.[39]
(§4) Where clear partial agonism was present (eg, Fig. 3D), the partial agonist affinity was calculated by the method of Stephenson[40] using equation 7.
(§5) (7) KDpartialagonist=Y×P/1-YwhereY=A2-A1/A3 where [P] is the concentration of the partial agonist, [A1] is the concentration of the agonist at the point where the fixed partial agonist causes the same response, [A2] is the concentration of agonist causing a given response above that achieved by the partial agonist, and [A3] is the concentration of the agonist, in the presence of the partial agonist, causing the same stimulation as [A2].
where N is the percentage of site 1, [A] is the concentration of agonist, and EC1_50 and EC2_50 are the respective EC50 values for the 2 agonist sites.

Assay [4] deals with T2, human β2-AR (Homo sapiens, UniProt P07550). As to the kind of experiment: CRE-SPAP production in CHO-β2-CRE-SPAP cells. Set-up: expressed in transfected cells; host or cells: CHO-K1 clonal line (CHO-β2-CRE-SPAP). Particulars: for % Isoprenaline: response compared with 10 μM isoprenaline; for EC50 / Log EC50: agonist action. The format is cell-based. The protocol:
as §1, §2, §3, §4, §5

Assay [5] deals with T1, β1-AR. Nature of the assay: 3H-CGP12177 whole-cell binding in CHO-β1-CRE-SPAP cells.
The target in assay [6] is T2, human β2-AR. Nature of the assay: 3H-CGP12177 whole-cell binding in CHO-β2-CRE-SPAP cells. Conditions: for β2-Selectivity: β2 over β1 affinity from whole-cell binding.
The mark [7] stands for this setting: CHO-β1-CRE-luciferase cells, given as log EC50 (negative).
Where [8] appears, read: Log KD (Cimaterol as Agonist), rightward shift of cimaterol response, Gaddum, or Stephenson (a).
Where [9] appears, read: CHO-β1-CRE-luciferase cells, Gaddum, or Stephenson for partial agonists (a).
[10] abbreviates: rightward shift of CGP12177 response.
[11] abbreviates: rightward shift of cimaterol response, Gaddum, or Stephenson (a).

T2 sequence (P07550 whole entry): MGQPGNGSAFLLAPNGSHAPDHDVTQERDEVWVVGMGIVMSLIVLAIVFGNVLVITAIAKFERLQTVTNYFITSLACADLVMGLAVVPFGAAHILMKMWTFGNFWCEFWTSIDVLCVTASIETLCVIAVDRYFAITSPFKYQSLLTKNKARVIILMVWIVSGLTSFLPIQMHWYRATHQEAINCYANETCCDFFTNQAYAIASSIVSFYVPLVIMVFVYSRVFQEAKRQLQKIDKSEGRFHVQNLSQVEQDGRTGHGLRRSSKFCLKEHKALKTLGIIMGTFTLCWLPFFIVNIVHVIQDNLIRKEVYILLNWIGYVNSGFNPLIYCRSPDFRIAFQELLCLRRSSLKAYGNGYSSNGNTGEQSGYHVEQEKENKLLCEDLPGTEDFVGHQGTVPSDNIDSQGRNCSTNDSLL
T1 sequence (P08588 whole entry): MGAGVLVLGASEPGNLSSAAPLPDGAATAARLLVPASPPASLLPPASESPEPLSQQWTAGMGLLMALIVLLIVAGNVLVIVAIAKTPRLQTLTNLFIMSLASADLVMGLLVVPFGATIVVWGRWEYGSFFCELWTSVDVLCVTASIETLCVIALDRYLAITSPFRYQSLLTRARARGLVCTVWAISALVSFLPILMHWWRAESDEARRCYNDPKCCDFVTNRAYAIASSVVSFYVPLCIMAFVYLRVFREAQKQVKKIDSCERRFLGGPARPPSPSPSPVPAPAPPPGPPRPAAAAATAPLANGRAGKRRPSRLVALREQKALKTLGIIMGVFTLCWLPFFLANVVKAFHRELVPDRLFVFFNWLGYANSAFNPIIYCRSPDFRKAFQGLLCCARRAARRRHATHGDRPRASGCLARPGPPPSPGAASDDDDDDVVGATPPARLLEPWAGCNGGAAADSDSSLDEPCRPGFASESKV

For `C=CCc1ccccc1OCC(O)CNC(C)C` (racemic) [Alprenolol, (RS)-1-(2-allylphenoxy)-3-(isopropylamino)propan-2-ol, reference compound], the “% isop” value at β1-AR [1] (CHO-β1-CRE-luciferase cells) came to 3.2 ± 0.8%. Further, at β1-AR [2], the “Pharmacological Outcome: CCE/IBS conformation” value was “Agonist (biphasic)” and the “Pharmacological Outcome: SCE conformation” value is listed as “Agonist (biphasic)”. For the same molecule, the “% at EC501” value on β1-AR [3] (% of the response occurring via first component) stood at 62.5 ± 2.7%. The “% Isoprenaline” value at β1-AR [3] came to 56.7 ± 3.7%.

Take `C=CCOc1ccccc1OCC(O)CNC(C)C` (racemic) [Oxprenolol, (RS)-1-[2-(allyloxy)phenoxy]-3-(isopropylamino)propan-2-ol, reference compound]: the “% Isoprenaline” value at human β2-AR [4] turned out to be 40.1 ± 2.3%. On β1-AR [2], the “Pharmacological Outcome: CCE/IBS conformation” value was “Agonist (biphasic)” and the “Pharmacological Outcome: SCE conformation” value is listed as “Agonist (biphasic)”.

As for `CC(C)NCC(O)COc1cccc2[nH]ccc12` (racemic) [Pindolol, (RS)-1-[(1H -indol-4-yl)oxy]-3-(isopropylamino)propan-2-ol, reference compound], the “% isop” value on β1-AR [1] (CHO-β1-CRE-luciferase cells) is listed as 11.7 ± 1.4%. At β1-AR [2], the “Pharmacological Outcome: CCE/IBS conformation” value is listed as “Agonist (biphasic)” and the “Pharmacological Outcome: SCE conformation” value is given as “Agonist (biphasic)”.

`CC(C)(Cc1c[nH]c2ccccc12)NCC(O)COc1ccccc1C#N` (stereo not drawn) [Bucindolol, 2-[2-hydroxy-3-[[2-(1H -indol-3-yl)-1,1-dimethyl-ethyl]amino]propoxy]benzonitrile, reference compound]: the Kd (as a rule, the concentration at which binding is half-saturated) is 0.575 nM at β1-AR [5] and 0.0513 nM at human β2-AR [6]. The same molecule had a β2-Selectivity on human β2-AR [6] of 11.2 fold. The “% at EC501” value on β1-AR [1] (% of the response occurring via first component, CHO-β1-CRE-luciferase cells) is 23.3 ± 2.4%. Besides, the EC50 (commonly the concentration giving half of the maximal effect) on β1-AR [1] (EC501 (log EC50 of first component), biphasic concentration response, CHO-β1-CRE-luciferase cells) is 0.537 nM; at β1-AR [1] (EC502 (log EC50 of second component), biphasic concentration response, CHO-β1-CRE-luciferase cells) it was 57.5 nM; at human β2-AR [4], 0.2 nM; on β1-AR [3], 0.759 nM. The “% isop” value at β1-AR [1] (CHO-β1-CRE-luciferase cells) is reported as 23.7 ± 1.7%. The “% Isoprenaline” value at human β2-AR [4] stood at 70.3 ± 2.0%; at β1-AR [3] it was 84.5 ± 2.4%. Moreover, the “Pharmacological Outcome: CCE/IBS conformation” value at β1-AR [2] is “Agonist (biphasic)”. Besides, the “Pharmacological Outcome: SCE conformation” value at β1-AR [2] is given as “Agonist (biphasic)”.

With `CC(C)(C)NC[C@H](O)COc1cccc2c1CCCC2=O` [VL03, 5-[(2S)-3-(tert-butylamino)-2-hydroxypropoxy]-3,4-dihydro-2H -naphthalen-1-one], the Kd at β1-AR [5] was 5.13 nM; at human β2-AR [4] (Log KD (CGP12177 as Agonist), rightward shift of CGP12177 response) it was 0.0759 nM; on human β2-AR [4] (setting [8]), 0.0468 nM; on β1-AR [3] (Log KD Catecholamine conformation Cimaterol as Agonist, rightward shift of cimaterol response, Gaddum, or Stephenson (a)), 1.78 nM; at β1-AR [3] (Log KD Secondary Conformation CGP12177 as Agonist, rightward shift of CGP12177 response), 562 nM. The “Log EC50” value on β1-AR [1] (setting [7]), on human β2-AR [4] and on β1-AR [3] was “No response” in each case. Moreover, the Schild slope at human β2-AR [4] (CGP12177 as agonist) came to 1.00 ± 0.03; at human β2-AR [4] (cimaterol as agonist), 0.99 ± 0.04; on β1-AR [3] (cimaterol as agonist) it was 0.96 ± 0.05. For the same molecule, at β1-AR [2], the “Evidence of SCE activation” value is on record as “None”. Further, the “Pharmacological Outcome: CCE/IBS conformation” value on β1-AR [2] is given as “High-affinity neutral antagonist”. For the same molecule, the “Pharmacological Outcome: SCE conformation” value on β1-AR [2] is reported as “Low-affinity neutral antagonist”.

On to `CC(C)(C)NC[C@@H](O)COc1cccc2c1CCC(=O)N2` [VL04, 5-[(2R)-3-(tert-butylamino)-2-hydroxypropoxy]-3,4-dihydro-1H -quinolin-2-one], for which the “% Isoprenaline” value on human β2-AR [4] turned out to be 55.1 ± 2.7%.

Take `COc1ccccc1OC[C@@H](O)CNC(C)C` [VL05, (2S)-1-(2-methoxyphenoxy)-3-(propan-2-ylamino)propan-2-ol]: the Kd on β1-AR [5] was 24 nM; at human β2-AR [6], 12.3 nM; on β1-AR [1], 10 nM. On human β2-AR [6], this molecule gave a β2-Selectivity of 1.9 fold. Besides, the EC50 is 64.6 nM at β1-AR [1] (Log EC50, agonist action, CHO-β1-CRE-luciferase cells, given as log EC50 (negative)); 3.8 nM on human β2-AR [4]; 5.01 nM at β1-AR [3]. In addition, the “Log ratio of affinities” value on β1-AR [1] (catecholamine vs secondary conformation, CHO-β1-CRE-luciferase cells) is on record as more than 3. For the same molecule, at β1-AR [1] (CHO-β1-CRE-luciferase cells), the “% isop” value is on record as 9.7 ± 0.8%. Moreover, the “Log KD Secondary Conformation, CGP12177 as agonist” value (from here on “Log KD Secondary Conformation”) on β1-AR [1] (setting [9]) is on record as “No shift 10 μM”. The “% Isoprenaline” value on human β2-AR [4] is 63.2 ± 3.2%; at β1-AR [3], 62.3 ± 3.8%. The “Evidence of SCE activation” value on β1-AR [2] is listed as “None”. At β1-AR [2], the “Pharmacological Outcome: CCE/IBS conformation” value was “Agonist”.

On to `Cc1cc(C)c(OC[C@@H](O)CNC(C)C)c(C)c1` [VL08, (2S)-1-(propan-2-ylamino)-3-(2,4,6-trimethylphenoxy)propan-2-ol], for which the Kd was 3240 nM on human β2-AR [6] and 2090 nM on human β2-AR [4] (setting [8]). For the same molecule, the “Log EC50” value on β1-AR [1] (setting [7]), at human β2-AR [4] and at β1-AR [3] was “No response” throughout. Also, the “Log KD Secondary Conformation” value on β1-AR [1] (setting [9]) and on β1-AR [3] (setting [10]) was “No shift 10 μM” each time. Moreover, the “Log KD (CGP12177 as Agonist)” value at human β2-AR [4] (setting [10]) was “No shift 10 μM”. Besides, the “Evidence of SCE activation” value on β1-AR [2] is on record as “None”. Also, the “Pharmacological Outcome: CCE/IBS conformation” value at β1-AR [2] is “No receptor interaction”. Moreover, the “Pharmacological Outcome: SCE conformation” value on β1-AR [2] is “No receptor interaction”. In addition, at β1-AR [3] (setting [11]), the “Log KD Catecholamine conformation Cimaterol as Agonist” value is reported as “No shift 10 μM”.

In turn, `OCCOc1ccc(CNCCc2c[nH]c3ccccc23)cc1` [VL11, 2-[4-[[2-(1H -indol-3-yl)ethylamino]methyl]phenoxy]ethanol] had a Kd on human β2-AR [6] of 8910 nM. Besides, the “Log EC50” value at β1-AR [1] (setting [7]), on human β2-AR [4] and on β1-AR [3] was “No response” throughout. Further, the “Log KD Secondary Conformation” value on β1-AR [1] (setting [9]) and at β1-AR [3] (setting [10]) was “No shift 10 μM” each time. The “Log KD (CGP12177 as Agonist)” value on human β2-AR [4] (setting [10]) is reported as “No shift 10 μM”. Moreover, the “Log KD (Cimaterol as Agonist)” value at human β2-AR [4] (setting [11]) was “No shift 10 μM”. In addition, at β1-AR [2], the “Evidence of SCE activation” value is listed as “None”. Moreover, the “Pharmacological Outcome: CCE/IBS conformation” value at β1-AR [2] is on record as “No receptor interaction”. Moreover, the “Pharmacological Outcome: SCE conformation” value at β1-AR [2] is recorded as “No receptor interaction”. In addition, the “Log KD Catecholamine conformation Cimaterol as Agonist” value on β1-AR [3] (setting [11]) is “No shift 10 μM”.

On to `C=CCc1ccccc1OCCNCCCOC` [VL12, 3-methoxy-N -[2-(2-prop-2-enylphenoxy)ethyl]propan-1-amine], for which the equilibrium dissociation constant (Kd) was 6760 nM on human β2-AR [6] and 3720 nM at human β2-AR [4] (setting [8]). Also, the “Log EC50” value on β1-AR [1] (setting [7]), at human β2-AR [4] and on β1-AR [3] was “No response” in each case. The “Log KD Secondary Conformation” value at β1-AR [1] (setting [9]) and on β1-AR [3] (setting [10]) was “No shift 10 μM” in each case. Besides, the “Log KD Catecholamine conformation Cimaterol as Agonist” value on β1-AR [1] (rightward shift of cimaterol response, CHO-β1-CRE-luciferase cells, Gaddum, or Stephenson for partial agonists (a)) is on record as “No shift at 10 μM”; on β1-AR [3] (setting [11]), “No shift 10 μM”. For the same molecule, the “Log KD (CGP12177 as Agonist)” value on human β2-AR [4] (setting [10]) is “No shift 10 μM”. In addition, the “Evidence of SCE activation” value at β1-AR [2] is listed as “None”. Moreover, the “Pharmacological Outcome: CCE/IBS conformation” value at β1-AR [2] is given as “No receptor interaction”. In addition, the “Pharmacological Outcome: SCE conformation” value at β1-AR [2] is listed as “No receptor interaction”.

For the origin of these results see PMC12799587, “Predicting compounds that interact with the 2 known agonist-induced conformations of the human β1-adrenoceptor” (Molecular Pharmacology, 2025).
